# Data taken from patent US20110034414A1, “FLUOROALKYLOXY ALKANES, PROCESS FOR PRODUCTION AND USES THEREOF” (AL.CHI.MI.A. S.R.L., priority 2008, published 2011).
# Columns and labels:
# [1] = Clarity (solubility) of mixtures of fluoroalkyloxy alkane with silicone oil 5,000 cS; format: physicochemical; design: key: ++: the mixture is clear after stirring at room temperature; +: the mixture is opalescent after stirring at room temperature, it becomes clear after heating at 37° C
# Description: Various mixtures comprising a fluoroalkyloxy alkane obtained according to Examples 1, 3 and 4 and a silicone oil having a viscosity of 5,000 cS (at 20° C.) were prepared.
# Table 4 contains the amounts of fluoroalkyloxy alkane in the various mixtures (expressed as weight % on the total weight of the mixture), and the result in terms of clarity of the solution at different temperatures.
# [2] = Clarity (solubility) of mixtures of fluoroalkyloxy alkane with silicone oil 1,000 cS; format: physicochemical; design: key: ++: the mixture is clear after stirring at room temperature; +: the mixture is opalescent after stirring at room temperature, it becomes clear after heating at 37° C
# Description: Various mixtures comprising a fluoroalkyloxy alkane obtained according to Examples 1, 3 and 4 and a silicone oil having a viscosity of 1,000 cS (at 20° C.) were prepared.
# Table 3 contains the amounts of fluoroalkyloxy alkane in the various mixtures (expressed as weight % on the total weight of the mixture), and the result in terms of clarity of the solution at different temperatures.
# [3] = 33% by weight fluoroalkyloxy alkane in silicone oil 5,000 cS (at 20° C.)
# [4] = 43% by weight fluoroalkyloxy alkane in silicone oil 5,000 cS (at 20° C.)
# [5] = 50% by weight fluoroalkyloxy alkane in silicone oil 5,000 cS (at 20° C.)
# [6] = 33% by weight fluoroalkyloxy alkane in silicone oil 1,000 cS (at 20° C.)
# [7] = 43% by weight fluoroalkyloxy alkane in silicone oil 1,000 cS (at 20° C.)
# [8] = 50% by weight fluoroalkyloxy alkane in silicone oil 1,000 cS (at 20° C.)
# [9] = 60% by weight fluoroalkyloxy alkane in silicone oil 5,000 cS (at 20° C.)
# [10] = 90% by weight fluoroalkyloxy alkane in silicone oil 5,000 cS (at 20° C.)
# [11] = 60% by weight fluoroalkyloxy alkane in silicone oil 1,000 cS (at 20° C.)
# [12] = 90% by weight fluoroalkyloxy alkane in silicone oil 1,000 cS (at 20° C.)
SMILES,"clarity of the solution ([1]; 20% by weight fluoroalkyloxy alkane in silicone oil 5,000 cS (at 20° C.))","clarity of the solution [1, 3]","clarity of the solution [1, 4]","clarity of the solution [1, 5]","clarity of the solution ([2]; 20% by weight fluoroalkyloxy alkane in silicone oil 1,000 cS (at 20° C.))","clarity of the solution [2, 6]","clarity of the solution [2, 7]","clarity of the solution [2, 8]","clarity of the solution [1, 9]","clarity of the solution [1, 10]","clarity of the solution [2, 11]","clarity of the solution [2, 12]"
CCCCCOCCC(F)(F)C(F)(F)C(F)(F)C(F)(F)C(F)(F)C(F)(F)F [CF3(CF2)5CH2CH2O(CH2)4CH3],++,++,+,+,++,++,+,+,,,,
CCCOCCC(F)(F)C(F)(F)C(F)(F)C(F)(F)F [CF3(CF2)3CH2CH2O(CH2)2CH3],,++,++,++,,++,++,++,++,++,++,++
CCCCCOCCC(F)(F)C(F)(F)C(F)(F)C(F)(F)F [CF3(CF2)3CH2CH2O(CH2)4CH3],,++,++,++,,++,++,++,++,++,++,++
